Where two headings read alike, the source gives them in different places.

In this test the target is T1, Akt1 (Homo sapiens, UniProt P31749).
T1 construct: made in house; host or cells: Sf9 insect cells (baculovirus, pBlueBacHis2B)
The test is described as follows: Akt1 kinase assay (33P phosphorylation of biotinylated peptide, Flash plates). It is filed as biochemical. The following applies: for inhibition at 1.1 µg/mL: assayed at a concentration of 1.1 mcg/mL. An excerpt:
The assay described below measures the phosphorylation of a biotinylated peptide by active recombinant Akt1 and other kinase isoforms. The biotinylated peptide contains a consensus sequence derived from Akt substrate Gsk3 (Glycogen synthase kinase 3). The ^33P-labeled peptide substrate was captured by streptavidin-coated Flash plates.
Active recombinant Akt1 was expressed in Sf9 insect cells and purified as described by Kumar et al., Biochim. Biophys. Acta. Jun. 15, 2001, 1526(3), 257-268. Biotinylated peptide of the sequence Bio-ahx-RPRAASF was purchased from Syn Pep (Dublin, Calif., USA).
Cloning and Expression of Human Akt1 Sf9 Cells
Human Akt1 cDNA was amplified from a marathon-ready human lung cDNA library (Clonetech) using nested oligo primers as described below. The first round of amplification was carried out using the following primers; Akt1F1 ([…]) and Akt1R1 (TCCATC […]) and for the second round amplification, the primers of the following sequence were used; Akt1F2 (GGATCCTCGG […]) and AKT1R2 (GGTACCATCGTC […]). The PCR product was subcloned into pCRScript plasmid as a BamHI/KpnI fragment and the sequence of the cDNA was confirmed by DNA sequencing. This plasmid was used as a template for reamplification of Akt1 using appropriate primers for subcloning into pBlueBaHis2B into BamH1/EcoRI sites to generate an in frame fusion to (His)6 tag and an anti-Xpress antibody epitope tag at the N-terminus. This construct was sequenced to verify the junction sequences and used for generating a recombinant baculovirus. Growth of the recombinant virus, amplification and determination of viral titer were carried out according to the instructions from the manufacturer (InVitrogen, CA).
Purification of Akt1 from Sf9 Cells
Viral stocks were used to infect large scale Sf9 cells at a multiplicity of infection (MOI) of 2.5. Cells were maintained at 27° C. for 60 h and okadaic acid was added to the cultures to a concentration of 50 nM. Cells were harvested 4 h hours later by centrifugation at 1200 rpm for 30 min followed by freezing at −80° C. until further use. All purification steps were carried out at 4° C. Whole cell pellets were suspended in buffer A (20 mM sodium phosphate buffer pH 7.8, 500 mM NaCl, 1 mM sodium vanadate, 5 mM sodium fluoride, 40 mM β-glycerophosphate, 10 mM imidazole and protease inhibitor cocktail) and lysed using a microfluidizer. The cell extract was centrifuged at 16,000×g for 10 min to remove the debris and directly loaded onto Ni-NTA Superflow resin using a FPLC pump operated at 1 ml/min. The column was washed once with buffer A, once with wash buffer B (20 mM sodium phosphate pH 6.0, 1 mM sodium vanadate, 5 mM sodium fluoride and protease cocktail) and once with wash buffer B containing 0.05% Tween-20 followed by washing with buffer A until OD260 returned to basal level. Proteins were eluted with buffer A containing 200 mM imidazole. Fractions were analyzed by electrophoresis on 10% denaturing polyacrylamide gels and fractions containing 85% pure protein band at 60 KDa were pooled and dialyzed against buffer C (20 mM Tris-HCl pH 7.5, 0.5 mM EDTA,-2 mM DTT, 145 mM NaCl, 0.1 mM sodium vanadate, 5 mM sodium fluoride, 10 mM, β-glycerophosphate and 20% glycerol). Purified protein was stored as aliquots at −80° C. Protein concentrations were determined using BCA protein assay reagent A (Catalog #23228). To examine the identity of the proteins, 2 μg of purified protein was electrophoresed on SDS-polyacrylamide gels and stained with coomassie blue dye or transferred to nitrocellulose membrane and probed with anti-Akt and anti-phospho-specific Akt antibodies using enhanced chemiluminescence (ECL) reagent according to the protocol described by the manufacturer (Amersham).
The kinase assay was performed in 96 well plates at room temperature. Assay solutions and plates were preincubated at room temperature for 5 min. […]

[1] abbreviates: read-out: IC50 rating (AKT1 inhibition).

T1 sequence (P31749 whole entry): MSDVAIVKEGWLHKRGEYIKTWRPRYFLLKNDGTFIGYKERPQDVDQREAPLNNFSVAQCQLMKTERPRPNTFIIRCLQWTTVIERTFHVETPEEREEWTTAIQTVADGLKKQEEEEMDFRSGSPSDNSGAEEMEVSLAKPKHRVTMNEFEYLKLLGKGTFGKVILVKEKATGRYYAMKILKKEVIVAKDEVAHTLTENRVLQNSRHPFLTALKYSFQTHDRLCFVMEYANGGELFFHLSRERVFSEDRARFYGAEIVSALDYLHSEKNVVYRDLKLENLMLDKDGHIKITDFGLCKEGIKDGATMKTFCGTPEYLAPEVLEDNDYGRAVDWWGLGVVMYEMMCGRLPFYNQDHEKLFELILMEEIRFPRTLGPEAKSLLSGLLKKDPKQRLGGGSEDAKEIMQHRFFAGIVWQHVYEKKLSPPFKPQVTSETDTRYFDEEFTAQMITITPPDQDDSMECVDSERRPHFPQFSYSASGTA

Regarding `Cc1n[nH]c2ccc(-c3nnc(N)c(N4CCNCC4)n3)cc12` [Compound 1, 6-amino-3-(3-methylindazol-5-yl)-5-(piperazin-1-yl)-[1,2,4]triazine], the IC50 under setting [1] fell in the range of 100 to 1000 nM.

Consider `Cc1n[nH]c2ccc(-c3nnc(N)c(O)n3)cc12` [Compound 2], for which the IC50 under setting [1] is more than 1000 nM.

As for `Cc1n[nH]c2ccc(-c3nnc(NCc4ccccc4)c(N4CCNCC4)n3)cc12` [Compound 3, 6-benzylamino-3-(3-methylindazol-5-yl)-5-(piperazin-1-yl)-[1,2,4]triazine], the inhibition at 1.1 µg/mL is more than 90%. Moreover, the IC50 under setting [1] was less than 100 nM.

`Cc1n[nH]c2ccc(-c3nnc(N(Cc4ccccc4)Cc4ccccc4)c(N4CCNCC4)n3)cc12` [Compound 4, 6-dibenzylamino-3-(3-methylindazol-5-yl)-5-(piperazin-1-yl)-[1,2,4]triazine]: the IC50 under setting [1] is more than 1000 nM.

Compound `Cc1n[nH]c2ccc(-c3nnc(N)c(N4CCN[C@@H](Cc5ccccc5)C4)n3)cc12` [Compound 5, 6-amino-5-[(S)-3-benzylpiperazin-1-yl]-3-(3-methylindazol-5-yl)-[1,2,4]triazine] displayed an inhibition at 1.1 µg/mL of more than 90%. Further, the IC50 under setting [1] is less than 100 nM.

As for `Cc1n[nH]c2ccc(-c3nnc(N)c(N4CCN[C@H](c5ccccc5)C4)n3)cc12` [Compound 6, 6-amino-3-(3-methylindazol-5-yl)-5-[(R)-3-phenylpiperazin-1-yl]-[1,2,4]triazine], the IC50 under setting [1] was 100 to 1000 nM.

With `Cc1n[nH]c2ccc(-c3nnc(N)c(N4CCN[C@@H](C(C)C)C4)n3)cc12` [Compound 7, 6-amino-5-[(S)-3-isopropylpiperazin-1-yl]-3-(3-methylindazol-5-yl)-[1,2,4]triazine], the inhibition at 1.1 µg/mL was more than 90%. The IC50 under setting [1] is less than 100 nM.

`Cc1n[nH]c2ccc(-c3nnc(N)c(N4CCN[C@@H](CC(C)C)C4)n3)cc12` [Compound 8, 6-amino-5-[(S)-3-isobutylpiperazin-1-yl]-3-(3-methylindazol-5-yl)-[1,2,4]triazine] registered an inhibition at 1.1 µg/mL of more than 90%. The IC50 under setting [1] was less than 100 nM.

In the case of `Cc1n[nH]c2ccc(-c3nnc(N)c(N4CCN[C@H](C)C4)n3)cc12` [Compound 9, 6-amino-3-(3-methylindazol-5-yl)-5-[(R)-3-methylpiperazin-1-yl]-[1,2,4]triazine], under setting [1], the IC50 is more than 1000 nM.

For `Cc1n[nH]c2ccc(-c3nnc(N)c(N4CCCNCC4)n3)cc12` [Compound 10, 6-amino-5-([1,4]diazepan-1-yl)-3-(3-methylindazol-5-yl)-[1,2,4]triazine], the inhibition at 1.1 µg/mL was more than 90%. The IC50 under setting [1] lay in the range of 100 to 1000 nM.

Turning to `Cc1n[nH]c2ccc(-c3nnc(N)c(N4CC5CC4CN5)n3)cc12` (centres unmarked) [Compound 11, 6-amino-5-(2,5-diazabicyclo[2.2.1]hept-2-yl)-3-(3-methylindazol-5-yl)-[1,2,4]triazine], the IC50 under setting [1] was more than 1000 nM.

The compound `Cc1n[nH]c2ccc(-c3nncc(N4CCN[C@@H](Cc5ccccc5)C4)n3)cc12` [Compound 12, 3-(3-methylindazol-5-yl)-5-[(S)-3-benzylpiperazin-1-yl]-[1,2,4]triazine] had an inhibition at 1.1 µg/mL of more than 90%. Under “read-out: IC50 (AKT1 inhibition)”, the IC50 was 2.6 nM. In addition, under setting [1], the IC50 is less than 100 nM.

Compound `Cc1n[nH]c2ccc(-c3nnc(Cl)c(N4CCN[C@@H](Cc5ccccc5)C4)n3)cc12` [Compound 13, 5-[(S)-3-benzylpiperazin-1-yl]-6-chloro-3-(3-methylindazol-5-yl)-[1,2,4]triazine] gave an inhibition at 1.1 µg/mL of more than 90%. Under setting [1], the half-maximal inhibitory concentration (IC50) was less than 100 nM.

As for `Cc1n[nH]c2ccc(-c3nnc(N)c(N4CCN[C@@H](C)C4)n3)cc12` [Compound 14, 6-amino-3-(3-methylindazol-5-yl)-5-[(S)-3-methylpiperazin-1-yl]-[1,2,4]triazine], the IC50 under setting [1] was 100 to 1000 nM.

Consider `Cc1n[nH]c2ccc(-c3nnc(NCc4ccccc4)c(N4CCN[C@@H](C)C4)n3)cc12` [Compound 15, 6-benzylamino-3-(3-methylindazol-5-yl)-5-[(S)-3-methylpiperazin-1-yl]-[1,2,4]triazine], for which the IC50 under setting [1] fell in the range of 100 to 1000 nM.

The IC50 is the concentration needed to halve the response being measured. As usually defined, the inhibition is the percentage by which the read-out fell short of the control. Low readings indicate a response near the control, high ones a response far below the control.

(Values after patent publication US7528132B2, “Kinase inhibitors” (Schering Corporation, priority 2005, dated 2009).)
